The values that follow come from ChEMBL document CHEMBL1201862, “PubChem BioAssay data set” (2004).

Structures are written as SMILES. Activity calls are given as the source filed them.

Test [1] has as its target T1, Heat shock factor protein 1 (Mus musculus, UniProt P38532).
T1 sequence (P38532 whole entry): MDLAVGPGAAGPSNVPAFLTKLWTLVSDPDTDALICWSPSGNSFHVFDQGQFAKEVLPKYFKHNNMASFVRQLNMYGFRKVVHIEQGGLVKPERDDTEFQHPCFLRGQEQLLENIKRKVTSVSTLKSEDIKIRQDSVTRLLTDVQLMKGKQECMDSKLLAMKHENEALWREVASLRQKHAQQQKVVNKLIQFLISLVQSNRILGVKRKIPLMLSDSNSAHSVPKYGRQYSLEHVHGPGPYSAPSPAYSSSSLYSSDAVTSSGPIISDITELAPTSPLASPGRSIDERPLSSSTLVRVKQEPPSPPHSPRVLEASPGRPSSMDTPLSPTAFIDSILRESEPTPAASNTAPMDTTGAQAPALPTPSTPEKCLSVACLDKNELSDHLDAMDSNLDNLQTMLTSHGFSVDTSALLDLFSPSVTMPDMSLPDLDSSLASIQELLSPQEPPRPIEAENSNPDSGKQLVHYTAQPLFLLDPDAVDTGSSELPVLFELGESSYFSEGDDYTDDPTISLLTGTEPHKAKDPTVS
Put plainly: HSF1 potentiators in luciferase reporter cells, confirmation, cell-based, NIH3T3, luminescence, dose retest (AID 435004).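 Note: stress induced by proteasome inhibitor MG132 added 30 min after compound; luciferase reporter driven by HSF1 response element in NIH3T3 cells; actives raise luminescence as potentiators of the MG132 stress response.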 In kind it is functional. (A reporter such as luciferase makes a cellular process visible.)

The next test deals with INS1. Put plainly: beta cell apoptosis inhibitors, cytokine rescue, dose response, luminescence, retest (AID 449756).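 Note: cell death triggered by IL-1 beta plus TNF-alpha plus IFN-gamma mixture; protective hits raise ATP signal compared with cytokine alone wells.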 Conditions: Rattus norvegicus, INS1. In kind it is functional, cell-based.
A further test addresses Paired box protein Pax-8 (Homo sapiens, UniProt Q06710). Put plainly: inhibitors of PAX8-driven TPO luciferase reporter, dose response, RMG-I cells, cherry-pick (AID 687027).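 Note: luciferase reporter driven by Pax8 target thyroperoxidase promoter measured by SteadyGlo luminescence.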 Type of test: functional, cell-based.
Test [2] in a line: PAX2 cell-based inhibition, dose response, selectivity assay for PAX8 inhibitor project, plate reader, dry powder samples (AID 743048).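 Note: HEK293 cells carrying a WT1 promoter luciferase reporter driven by expressed Pax2; potency is for inhibition of Pax2 driven reporter signal.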 In kind it is functional.
The nature of test [3]: NIH:OVCAR-3 ovarian cancer cell cytotoxicity, dose response, PAX8 inhibitor project, plate reader, dry powder samples (AID 743044). Type of test: functional, cell-based.
Test [4] can be described thus: PAX5 activity inhibitors, dose response, selectivity assay for PAX8 inhibitor project, cell-based, plate reader, dry powder samples (AID 743047).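 Note: HEK293 cells carrying a Pax5 driven CD19 promoter luciferase reporter; potency of inhibitors that lower reporter luminescence.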 Type of test: functional.
Test [5] in a line: IGROV1 ovarian cancer cell cytotoxicity, dose response, PAX8 inhibitor project, plate reader, dry powder samples (AID 743043). Type of test: functional, cell-based. Conditions: IGROV-1.
Test [6] can be described thus: cytotoxicity in COV434 cells, dose response, cytotoxicity control for PAX8 inhibitor project, cell-based, plate reader, dry powder, SA7 (AID 743145). Type of test: functional.
The nature of test [7]: cytotoxicity dependent on PAX8, dose response, cell-based, plate reader, dry powder (AID 743049). Type of test: functional.
Test [8] deals with T2, RNA-binding protein pos-1 (Caenorhabditis elegans, UniProt G5EF15).
T2 sequence (G5EF15 whole entry): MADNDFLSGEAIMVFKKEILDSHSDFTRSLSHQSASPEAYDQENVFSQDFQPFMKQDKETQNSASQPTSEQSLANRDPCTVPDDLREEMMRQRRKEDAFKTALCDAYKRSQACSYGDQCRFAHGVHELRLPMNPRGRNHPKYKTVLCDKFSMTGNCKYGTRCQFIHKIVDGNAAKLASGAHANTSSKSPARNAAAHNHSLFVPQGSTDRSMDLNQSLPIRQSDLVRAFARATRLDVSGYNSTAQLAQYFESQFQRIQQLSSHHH
Put plainly: inhibitors of POS-1/mex-3 RNA binding, dose response, biochemical, fluorescence polarization (AID 1964). (Polarisation of emitted light reports the rotation of a fluorescent probe.)

In test [9] the target is T3, Zinc finger protein mex-5 (Caenorhabditis elegans, UniProt Q9XUB2).
T3 sequence (Q9XUB2 whole entry): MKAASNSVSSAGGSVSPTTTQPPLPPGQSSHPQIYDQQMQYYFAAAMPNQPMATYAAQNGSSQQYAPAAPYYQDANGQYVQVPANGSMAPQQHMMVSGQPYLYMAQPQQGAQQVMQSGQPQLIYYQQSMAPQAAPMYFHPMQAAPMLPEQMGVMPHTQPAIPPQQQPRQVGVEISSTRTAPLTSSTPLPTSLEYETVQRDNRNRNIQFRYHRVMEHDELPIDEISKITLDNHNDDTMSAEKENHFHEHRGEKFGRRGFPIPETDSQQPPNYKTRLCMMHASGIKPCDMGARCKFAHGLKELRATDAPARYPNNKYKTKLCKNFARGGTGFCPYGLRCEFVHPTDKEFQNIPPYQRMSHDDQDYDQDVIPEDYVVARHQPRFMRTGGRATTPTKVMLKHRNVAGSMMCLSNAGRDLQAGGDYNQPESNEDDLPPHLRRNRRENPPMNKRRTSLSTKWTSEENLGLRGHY
Put plainly: MEX-5/TCR-2 RNA interaction inhibitors, dose response, biochemical, C. elegans, fluorescence polarization (AID 1960).

For the next test, the target named is Estrogen receptor beta (Homo sapiens, UniProt Q92731).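 Note: recombinant ER-beta bound to coactivator SRC1 peptide in presence of estradiol agonist; inhibitors block coactivator peptide binding and lower the FRET signal.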
A further test deals with Prothrombin (Homo sapiens, UniProt P00734). Put plainly: Thrombin 1536 HTS Dose Response Confirmation. [Related pubchem assays: 1046 (Thrombin 1536 HTS; hits were confirmed in this assay)]. Type of test: functional.
Test [10] can be described thus: M. tuberculosis H37Rv growth inhibitors, H37Rv strain (AID 1626). In kind it is functional.
The target in test [11] is Metabotropic glutamate receptor 7 (Homo sapiens, UniProt Q14831). Put plainly: mGlu7 positive allosteric modulators, dose response, cell-based, calcium mobilization, Galpha15 (AID 743384). In kind it is functional. In general terms: Calcium flux is commonly read through the fluorescence of an indicator in the cells.
Test [12] in a line: Luminescent dose response cell-based high throughput screening assay for inhibitors of the Janus kinase 2 mutant JAK2V617F. [Related pubchem assays: 1446 (Primary screen.), 1521 (Confirmation assay.), 1486 (Counter screen.)]. Type of test: functional.
A further test addresses T4, Coagulation factor XII (Homo sapiens, UniProt P00748).
T4 sequence (P00748 whole entry): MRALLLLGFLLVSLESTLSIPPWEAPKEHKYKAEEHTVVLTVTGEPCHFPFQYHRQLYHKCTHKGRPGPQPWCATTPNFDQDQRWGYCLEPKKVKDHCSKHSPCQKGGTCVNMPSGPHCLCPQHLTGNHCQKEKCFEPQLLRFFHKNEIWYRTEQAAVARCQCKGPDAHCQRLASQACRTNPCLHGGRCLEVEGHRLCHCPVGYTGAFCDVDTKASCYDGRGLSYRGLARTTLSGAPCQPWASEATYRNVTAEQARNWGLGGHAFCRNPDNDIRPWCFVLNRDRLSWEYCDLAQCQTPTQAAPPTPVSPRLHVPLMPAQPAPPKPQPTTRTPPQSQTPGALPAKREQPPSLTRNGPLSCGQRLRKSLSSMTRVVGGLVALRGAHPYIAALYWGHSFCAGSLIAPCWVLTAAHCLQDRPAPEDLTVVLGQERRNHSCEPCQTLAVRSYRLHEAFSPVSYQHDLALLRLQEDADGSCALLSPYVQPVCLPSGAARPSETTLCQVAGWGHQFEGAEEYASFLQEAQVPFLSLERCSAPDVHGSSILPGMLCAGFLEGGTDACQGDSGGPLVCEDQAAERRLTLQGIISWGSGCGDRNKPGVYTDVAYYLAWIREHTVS
In kind it is functional.

The target in test [13] is G-protein coupled receptor 183 (Homo sapiens, UniProt P32249). Put plainly: SAR confirmation of small molecule antagonists of the EBI2 receptor via a luminescent beta-arrestin assa. In kind it is functional.
Test [14] deals with 5-hydroxytryptamine receptor 1A (Homo sapiens, UniProt P08908). Type of test: functional.
For test [15], the target named is Luciferin 4-monooxygenase (Photinus pyralis, UniProt P08659). Put plainly: firefly luciferase enzyme inhibitors, dose response, biochemical, luminescence (AID 1891).
The nature of test [16]: Luminescence Cell-Based Dose Confirmation HTS to Identify Inhibitors of Platelet Dense Granule Release. [Related pubchem assays: 1663 (Primary HTS), 1678 (Summary of Project)]. Type of test: functional.
A short description of test [17]: Fluorescence Cell-Based Dose Response to Identify Inhibitors of Thrombin Receptor-Activating Peptide SFLLRN-Mediated P-Selectin Induction on Platelets. [Related pubchem assays: 1663 (Primary HTS), 1889 (retest at dose ), 1891 (counterscreen), 1678 (Project Summary)]. In kind it is functional.
Test [18] in a line: Vero cell cytotoxicity, dose response, cytotoxicity control for Vif-APOBEC3G degradation inhibitor project, Vero cells (AID 1117358). Particulars: Human immunodeficiency virus 1, Vero. Type of test: functional.
Test [19] is described as follows: P. falciparum 3D7-ScDHODH growth inhibitors, dose response, SYBR Green, dry powder samples (AID 1159570).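 Note: parasite growth measured after 72 hours of compound exposure.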 Type of test: functional, cell-based.
Test [20] is described as follows: HepG2 cell cytotoxicity, dose response, cytotoxicity control, plate reader, dry powder samples (AID 1159569).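 Note: inhibitor potency with signal falling toward the positive control level.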 In kind it is functional, cell-based.
A short description of test [21]: P. falciparum Dd2 growth inhibitors, dose response, SYBR Green, cherry-picked samples (AID 1159567). In kind it is functional, cell-based.
Test [22] is described as follows: P. falciparum Dd2 growth inhibitors, dose response, SYBR Green, dry powder samples (AID 1159566).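 Note: potency for growth inhibition with lower SYBR green DNA signal.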 In kind it is functional, cell-based.
Test [23] is described as follows: Plasmodium falciparum Dd2 Sybr green parasite growth Measured in Cell-Based and Microorganism Combination System Using Plate Reader - 2153-01_Inhibitor_Dose_DryPowder_Activity_Set3. Type of test: functional.
Test [24] is described as follows: P. falciparum ATP4 D1247Y mutant growth inhibitors, dose response, NITD609-resistant line, SYBR Green, dry powder (AID 1159571).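 Note: parasites synchronized at ring stage by sorbitol before testing.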 Type of test: functional, cell-based.
A short description of test [25]: P. falciparum Dd2 growth inhibitors, dose response, SYBR Green, dry powder samples, set 9 (AID 1159568). Type of test: functional, cell-based.
Test [26] is described as follows: HepG2 cell cytotoxicity, dose response, cytotoxicity control, cherry-picked samples (AID 1159577). In kind it is functional, cell-based.

Sequence of 5-hydroxytryptamine receptor 1A (P08908 whole entry): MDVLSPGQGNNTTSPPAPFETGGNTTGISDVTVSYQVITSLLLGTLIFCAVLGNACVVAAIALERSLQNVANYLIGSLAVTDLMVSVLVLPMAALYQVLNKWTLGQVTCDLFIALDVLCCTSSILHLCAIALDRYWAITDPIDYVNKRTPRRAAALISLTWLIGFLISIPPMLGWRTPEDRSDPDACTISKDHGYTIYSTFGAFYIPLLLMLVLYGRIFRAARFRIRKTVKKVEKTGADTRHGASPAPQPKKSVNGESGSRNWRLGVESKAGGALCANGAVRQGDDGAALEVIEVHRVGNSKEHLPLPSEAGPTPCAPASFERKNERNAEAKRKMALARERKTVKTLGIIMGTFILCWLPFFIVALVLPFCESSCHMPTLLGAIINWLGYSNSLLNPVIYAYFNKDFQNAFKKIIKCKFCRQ
Sequence of G-protein coupled receptor 183 (P32249 whole entry): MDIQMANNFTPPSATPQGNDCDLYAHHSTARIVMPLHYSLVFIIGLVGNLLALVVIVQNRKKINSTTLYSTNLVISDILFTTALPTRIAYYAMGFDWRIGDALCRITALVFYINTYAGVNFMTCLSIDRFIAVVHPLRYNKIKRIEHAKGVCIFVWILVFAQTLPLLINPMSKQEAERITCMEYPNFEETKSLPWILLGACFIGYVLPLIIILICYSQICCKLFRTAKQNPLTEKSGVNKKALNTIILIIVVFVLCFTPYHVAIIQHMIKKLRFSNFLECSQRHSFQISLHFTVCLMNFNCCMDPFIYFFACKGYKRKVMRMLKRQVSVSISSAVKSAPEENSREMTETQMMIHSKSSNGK
Sequence of Metabotropic glutamate receptor 7 (Q14831 whole entry): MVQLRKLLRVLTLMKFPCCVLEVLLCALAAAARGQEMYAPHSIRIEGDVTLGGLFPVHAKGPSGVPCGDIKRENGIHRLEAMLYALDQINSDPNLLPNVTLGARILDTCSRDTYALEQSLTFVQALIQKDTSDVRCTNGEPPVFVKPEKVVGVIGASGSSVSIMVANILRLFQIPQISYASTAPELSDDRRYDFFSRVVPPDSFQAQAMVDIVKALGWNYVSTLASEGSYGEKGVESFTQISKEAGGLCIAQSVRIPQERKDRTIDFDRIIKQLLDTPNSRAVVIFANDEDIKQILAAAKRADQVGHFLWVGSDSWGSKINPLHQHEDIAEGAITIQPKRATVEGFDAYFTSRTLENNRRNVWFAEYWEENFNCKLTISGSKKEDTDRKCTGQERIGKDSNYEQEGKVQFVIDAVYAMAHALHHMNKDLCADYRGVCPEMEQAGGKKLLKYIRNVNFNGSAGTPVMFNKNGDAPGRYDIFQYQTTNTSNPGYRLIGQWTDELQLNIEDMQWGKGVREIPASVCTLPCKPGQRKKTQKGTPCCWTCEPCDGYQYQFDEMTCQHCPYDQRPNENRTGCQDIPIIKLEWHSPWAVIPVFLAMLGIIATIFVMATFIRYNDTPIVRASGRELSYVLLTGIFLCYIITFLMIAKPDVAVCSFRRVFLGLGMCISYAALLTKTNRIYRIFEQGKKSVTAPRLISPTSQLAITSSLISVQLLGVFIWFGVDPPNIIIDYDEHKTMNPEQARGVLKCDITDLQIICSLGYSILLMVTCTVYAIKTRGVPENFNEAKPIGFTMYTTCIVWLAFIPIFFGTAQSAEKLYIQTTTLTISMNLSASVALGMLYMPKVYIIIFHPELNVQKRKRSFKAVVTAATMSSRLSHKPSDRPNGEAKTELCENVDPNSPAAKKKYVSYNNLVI
Sequence of Paired box protein Pax-8 (Q06710 whole entry): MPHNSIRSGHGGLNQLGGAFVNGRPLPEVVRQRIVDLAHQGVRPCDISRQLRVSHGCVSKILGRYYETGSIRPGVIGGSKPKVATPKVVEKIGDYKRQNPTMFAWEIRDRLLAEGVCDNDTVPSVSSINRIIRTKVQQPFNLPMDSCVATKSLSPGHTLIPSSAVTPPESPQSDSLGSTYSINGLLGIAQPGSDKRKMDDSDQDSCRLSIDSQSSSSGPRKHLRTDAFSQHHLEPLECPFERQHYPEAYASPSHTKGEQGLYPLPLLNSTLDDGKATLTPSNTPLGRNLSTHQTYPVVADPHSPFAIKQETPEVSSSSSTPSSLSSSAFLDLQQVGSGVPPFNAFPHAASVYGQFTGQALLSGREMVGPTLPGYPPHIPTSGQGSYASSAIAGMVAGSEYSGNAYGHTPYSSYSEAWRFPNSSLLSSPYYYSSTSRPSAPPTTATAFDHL
Sequence of Estrogen receptor beta (Q92731 whole entry): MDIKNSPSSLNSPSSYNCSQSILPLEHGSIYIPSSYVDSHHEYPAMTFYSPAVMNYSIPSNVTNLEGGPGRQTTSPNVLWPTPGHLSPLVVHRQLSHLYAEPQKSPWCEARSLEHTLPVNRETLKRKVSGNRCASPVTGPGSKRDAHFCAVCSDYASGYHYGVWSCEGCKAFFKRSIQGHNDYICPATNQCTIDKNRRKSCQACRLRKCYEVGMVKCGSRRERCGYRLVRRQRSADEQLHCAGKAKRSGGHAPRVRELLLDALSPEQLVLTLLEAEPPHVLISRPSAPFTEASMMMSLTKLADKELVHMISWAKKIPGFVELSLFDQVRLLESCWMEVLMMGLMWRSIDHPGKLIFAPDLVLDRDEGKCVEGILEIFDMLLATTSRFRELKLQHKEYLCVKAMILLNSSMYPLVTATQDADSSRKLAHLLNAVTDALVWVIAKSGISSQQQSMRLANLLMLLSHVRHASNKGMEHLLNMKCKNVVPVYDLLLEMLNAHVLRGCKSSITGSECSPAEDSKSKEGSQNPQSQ
Sequence of Luciferin 4-monooxygenase (P08659 whole entry): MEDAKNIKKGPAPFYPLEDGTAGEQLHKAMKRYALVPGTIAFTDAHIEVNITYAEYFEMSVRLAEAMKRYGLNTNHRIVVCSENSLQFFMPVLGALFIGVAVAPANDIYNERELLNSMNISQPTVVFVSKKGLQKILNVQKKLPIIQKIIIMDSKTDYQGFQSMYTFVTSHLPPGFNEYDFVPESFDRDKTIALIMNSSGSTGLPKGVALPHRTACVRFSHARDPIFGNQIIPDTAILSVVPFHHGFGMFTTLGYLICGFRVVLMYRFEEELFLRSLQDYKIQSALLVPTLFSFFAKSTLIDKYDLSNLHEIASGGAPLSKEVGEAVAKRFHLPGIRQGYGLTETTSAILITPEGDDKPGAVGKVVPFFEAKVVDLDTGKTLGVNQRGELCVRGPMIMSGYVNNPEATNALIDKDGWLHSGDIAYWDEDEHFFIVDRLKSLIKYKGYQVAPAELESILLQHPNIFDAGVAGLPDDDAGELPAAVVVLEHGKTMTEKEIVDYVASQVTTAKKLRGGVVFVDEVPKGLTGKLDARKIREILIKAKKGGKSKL

One may read the EC50 as the concentration that produces a half-maximal response. One may read the AC50 as the midpoint of the concentration-response curve, whichever way the signal moves. Consider `O=C(Nc1ccc(OCC(F)(F)C(F)F)c(C(F)(F)F)c1)c1ccccc1O`, for which, in [1], the EC50 is 67.4 µM (active). For the same compound, the AC50 is 4.78 µM (active) in the test on INS1; 7.06 µM (active) at Paired box protein Pax-8; 3.62 µM (active) in test [2]; 14.8 µM (active) in test [3]; 6.09 µM (active) in [4]; 48.2 µM (active) in [5]. The AC50 in [6] is 56.2 µM (active); in [7] it was 17.8 µM (active).

One may read the IC50 as the concentration needed to halve the response being measured. As to `ON=C1/C(=N\O)CC2(C/C1=N/O)OCCO2`, the values for the EC50 in test [8] and in test [9] were > 300 µM (not active) and 13 µM (active), respectively. Also, the IC50 at Estrogen receptor beta is 14.1 µM (active).

On to `C/C(=C\c1ccccc1)C(=O)n1nnc2ccccc21`, for which the IC50 at Prothrombin is 0.846 µM (active).

Consider `Cc1cccc(Oc2ccc(N)cc2)c1`, for which, in [10], the IC50 is > 100 µM (active).

Regarding `CC(=O)Nc1ccc(SCC(=O)c2cc(C)n(CC3COc4ccccc4O3)c2C)cc1` (stereo not drawn), the EC50 in test [11] is 2.6 µM (active).

For `Cc1cc(SCC(=O)N/N=C/c2ccc(O)c(O)c2)c(C)cc1Br`, the IC50 in [12] was 1.65 µM (active). In test [1], the EC50 is > 260 µM (inactive).

For the compound `COc1cccc(NC(=S)Nc2ccc(Br)cc2Cl)c1`, the IC50 against Prothrombin is > 50 µM (not active); at Coagulation factor XII, > 50 µM (inactive).

`CC(C)c1ccc(S(=O)(=O)N2CCN(C(=O)/C=C/c3ccc(F)cc3)CC2)cc1`: the IC50 in [13] is 0.0243 µM (active).

Turning to `CC(=O)Nc1ccc(S(=O)(=O)N(C)c2ccc(O)cc2)cc1`, the EC50 in [14] is > 50 µM (not active).

As to `CCOc1cc(/C=N/NC(N)=O)cc(Br)c1OCC(=O)Nc1ccccc1C`, the EC50 in test [15] is > 112 µM (not active); in [16], 1.55 µM (active); in test [17], < 1 µM (active).

One may read the CC50 as the concentration that lowers cell viability or growth by half. As for `COc1cc(C(=O)NCC(c2ccco2)N2CCCC2)ccc1OCc1c(C)noc1C` (stereo not drawn), the CC50 in test [18] is > 40 µM (active).

As to `CCCC(=O)Nc1ccc2c(c1)OC[C@@H](C)N(Cc1ccc(F)cc1)C[C@@H](C)[C@H](OC)CN(C)C2=O`, the AC50 is 9.67 µM (active) in [19]; 75.8 µM (active) in test [20]; 1.92 µM (active) in test [21]; 0.753 µM (active) in [22]; 2.51 µM (active) in [23]; 2.44 µM (active) in test [24].

Regarding `O=C(/C=C/c1ccc(F)cc1)N1CCN(S(=O)(=O)C2=Cc3ccccc3CC2)CC1`, the IC50 in test [13] is 0.00115 µM (active).

In the case of `CCOc1ccc(-n2c(C)cc(C(=O)CSCc3ccc(OC)cc3)c2C)cc1`, in test [11], the EC50 is 10 µM (active).

Take `NCCc1c[nH]c2ccc(F)cc12`: the EC50 in test [14] was 2.22 µM (active).

Take `COc1ccccc1C#Cc1ccc([C@H]2[C@@H](C#N)N(C(=O)C3CCCC3)[C@H]2CO)cc1`: the AC50 in test [19] was 0.715 µM (active); in test [20] it was 23.8 µM (active); in test [25], 0.493 µM (active); in [21], 0.873 µM (active); in test [22], 0.474 µM (active); in test [26], 34.1 µM (active). Besides, the AC50 in test [23] was 1.16 µM (active); in test [24], 0.808 µM (active).

Regarding `COc1ccc2nc(O)c(CN(C(=O)NC3CCCCC3)C3CCCCC3)cc2c1`, the IC50 in test [10] was > 100 µM (active).
